Experimental data from patent US20230414644A1, “ORAL CANINE FEED AND METHODS FOR CONTROLLING FLEA INFESTATIONS IN A CANINE” (In the Bowl Animal Health, Inc., priority 2021, published 2023).

System: Ctenocephalides felis
Assay: Efficacy of spinosyn administered per os (liquid formulation, daily) to dogs against experimental flea infestation, comb counts of live adult fleas
Type: in vivo
Details: for percent reduction in live adult flea counts: day 14 comb count; for Efficacy (percent reduction in live adult flea counts): day 37, after the five day wash out period
Description: Efficacy of Spinosyn Administered Per Os, i.e. by Mouth, to Dogs for the Treatment and Control of Ctenocephalides felis.
Methods: A pool of 40 dogs are to be preliminarily infested with ˜100 unfed adult C. felis in order to produce a pool of dogs that can suitably sustain a reliable infestation rate of approximately 50% of live fleas over a 48-hour period. The dogs with the highest live flea counts are to be randomly allocated to 4 treatment groups (6 dogs per group) based on their pre-treatment flea counts from experimental infestations. The first treatment group is to be the control group and groups 2-4 are to be the test groups.
The dogs are to be housed individually during the study period and are to be fed a commercial dry dog food ration with ad libitum access to water.
Dogs in the control group are not to receive a spinosyn or any other flea control treatment. Each dog in test groups 2-4 is to be offered its daily ration (dry food) and the individual doses of liquid formulation are to be administered after the individual dog has eaten at least 25% of its total daily ration. After receiving the dose of a spinosyn the dogs are to be allowed to continue eating. This mimics incorporating the spinosyn in feed. Each dog in test groups 2-4 and the control group is to be experimentally infested with 100 unfed adult fleas on test days −1, 5, 12, 19, 28 and 35. Comb counts for live adult fleas are to be conducted on days 2, 7, 14, 21, 30 and 37. The final experimental infestation is to occur five days after the last daily dose of spinosyn.

spinosad
percent reduction in live adult flea counts (0.25 mg/kg daily oral (Group 2)): 100% | percent reduction in live adult flea counts (0.50 mg/kg daily oral (Group 3)): 100% | Efficacy (percent reduction in live adult flea counts) (0.50 mg/kg daily oral days 0-29 (Group 3)): over 98% | percent reduction in live adult flea counts (1.0 mg/kg daily oral (Group 4)): 100% | Efficacy (percent reduction in live adult flea counts) (1.0 mg/kg daily oral days 0-29 (Group 4)): over 98%
